Experimental data taken from US9079964B2, “Immunoassay for cyclopropylindole based synthetic cannabinoids, metabolites and derivatives thereof” (Randox Laboratories Limited, priority 2013, dated 2015).

Legend:
CB1 receptor = CB1 receptor (Homo sapiens, UniProt P21554); conditions: CB1 versus CB2; cited from earlier work
[1] = tested on: antiserum raised to Immunogen I; test: UR144/XLR11 Synthetic Cannabinoids (Spice) ELISA, antiserum raised to Immunogen I (third bleed); type: binding, sheep; conditions: for % Cross-Reactivity: Table 4, relative to UR144 N-Pentanoic Acid = 100; for Concentration of compounds that elicit a negative response: Table 4, negative response at this concentration
Experimental: (§1) The wells of an enhanced binding 96 well polystyrene microtiter plate were coated with IgG fraction of antiserum raised to Immunogen I or II, diluted in 10 mM Tris, pH 8.5 (125 μl/well). The appropriate antibody coating dilution was determined using standard ELISA checkerboard techniques. The plate was incubated overnight at 4° C., washed 4 times over 10 minutes with Tris buffered saline containing Tween20 (TBST) and tapped dry. Standard solutions (UR-144 N-pentanoic acid) were applied at 0, 0.625, 1.25, 2.5, 5, 10, 20 and 40 ng/ml and 50 μl of each was added to the appropriate wells. 75 μl of conjugate (appropriate hapten-HRP) diluted in Tris buffer (pH 7.2) containing EDTA, D-mannitol, sucrose, thimerosol and BSA, was added to each of the wells. The appropriate dilution of conjugate was also determined using standard ELISA checkerboard techniques. The plate was incubated at 25° C. for 1 hour. Excess unbound conjugate was removed by washing 6 times over a ten minute period with TBST. 125 μl of tetramethylbenzidine (TMB) substrate solution was added to each well of the plate that was then incubated for 20 minutes in the dark at room temperature. The reaction was terminated by addition of 125 μl of 0.2 M H2SO4 to each well. The absorbance was then measured at 450 nm using a microtiter plate reader. The data are inputted to a computer program called ‘KC Junior’ (Biotek). It gives a 4 parameter fit curve and allows the calculation of concentrations between the standard runs. This program is used to calculate the IC50 values by dividing the 0 ng/ml optical density (OD) value by 2 and obtaining the concentration value from the curve for this OD.
(§2) Cross-reactivity was calculated according to the following formula: % CR=IC50, UR-144 N-pentanoic acid/IC50, cross reactant×100 Where % CR is the percentage cross-reactivity, IC50, UR-144 N-pentanoic acid is the concentration of UR-144 N-pentanoic acid that causes 50% displacement of signal and IC50, cross reactant is the concentration of the cannabinoid/metabolite/selected molecule that causes 50% displacement of signal.
A further assay was carried out in accordance with the protocol described in Example 9 using Immunogen I.

[2] = tested on: antiserum raised to Immunogen I; test: Competitive ELISA with IgG fraction of antiserum raised to Immunogen I (second bleed) and hapten 1-HRP detecting agent; type: binding, sheep
Experimental: as §1, §2
In order to determine the specificity of the competitive ELISAs, standard solutions of a range of structurally related synthetic cannabinoids and their metabolites were prepared in TBST (Tris-Buffered Saline and Tween 20). Using the calibration curves generated and employing a single level of cross reactants, these were used to determine the cross-reactivity of the immunoassays with these substances.

[3] = tested on: antibodies provided in European patent application number 2,487,155; conditions: antibodies of EP 2,487,155; cited from earlier work
[4] = Table 1, B = absorbance at 450 nm at x ng/ml standard, B0 at 0 ng/ml, second bleed
[5] = Table 1, CR based on 100% for UR-144 N-pentanoic acid
[6] = Table 1, standard concentration which produces 50% B/B0, second bleed
[7] = Table 2, cross-reactant at 100 ng/ml (single level)
[8] = Table 2, cross-reactant tested at 100 ng/ml
[9] = Table 2, cross-reactant tested at 100 ng/ml, relative to UR-144 N-pentanoic acid

CB1 receptor, sequence (P21554 whole entry): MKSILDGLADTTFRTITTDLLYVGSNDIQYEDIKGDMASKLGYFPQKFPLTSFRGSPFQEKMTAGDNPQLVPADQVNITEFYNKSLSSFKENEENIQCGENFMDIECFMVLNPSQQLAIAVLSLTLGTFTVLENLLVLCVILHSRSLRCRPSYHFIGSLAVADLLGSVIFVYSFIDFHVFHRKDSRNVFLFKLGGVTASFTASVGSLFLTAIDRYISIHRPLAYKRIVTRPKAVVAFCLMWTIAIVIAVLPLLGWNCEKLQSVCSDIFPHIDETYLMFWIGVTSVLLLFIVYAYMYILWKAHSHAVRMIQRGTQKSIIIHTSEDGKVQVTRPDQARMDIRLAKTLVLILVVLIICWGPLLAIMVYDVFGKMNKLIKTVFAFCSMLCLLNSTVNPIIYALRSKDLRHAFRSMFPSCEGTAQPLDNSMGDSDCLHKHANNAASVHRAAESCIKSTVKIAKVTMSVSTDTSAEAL

| Structure (SMILES) | lower affinity for the CB1 receptor than for CB2 (CB1 receptor) | % Cross-Reactivity [1] | % B/BO [2, 4] | % Cross-reactivity (CR) [2, 5] | IC50 [2, 6] | cross-reactivity (in words) [3] | Concentration of compounds that elicit a negative response [1] | % B/BO [2, 7] | IC50 [2, 8] | % Cross-reactivity (CR) [2, 9] |
| --- | --- | --- | --- | --- | --- | --- | --- | --- | --- | --- |
| CCCCCn1cc(C(=O)C2C(C)(C)C2(C)C)c2ccccc21 [UR-144, (1-pentyl-1H-Indol-3-yl)(2,2,3,3-tetramethylcyclopropyl) methanone] | 83 × | 19% | 40.5% | 15.3% | 0.022815 µg/mL | no significant cross-reactivity |  |  |  |  |
| CCCCCn1cc(C(=O)c2ccc(OC)cc2)c2ccccc21 [RCS 4] |  |  |  |  |  |  | 100 ng/mL | 80.02% | >0.1 µg/mL | <3.0% |
| O=C(c1cccc2ccccc12)c1cn(CCCCCF)c2ccccc12 [AM2201] |  |  |  |  |  |  | 100 ng/mL | 85.58% | >0.1 µg/mL | <3.0% |
| CCCCCn1cc(C(=O)c2cccc3ccccc23)c2cc(O)ccc21 [JWH-018 (5 hydroxyindole)] |  |  |  |  |  |  | 100 ng/mL | 94.61% | >0.1 µg/mL | <3.0% |
| CC1(C)C(C(=O)c2cn(CCCCCO)c3ccccc23)C1(C)C [UR-144 N-pentanol] |  | 110% | 13.0% | 109.2% | 0.003191 µg/mL |  |  |  |  |  |
| CCCCn1cc(C(=O)c2cccc3ccccc23)c2ccccc21 [JWH-073] |  |  |  |  |  |  | 100 ng/mL | 90.44% | >0.1 µg/mL | <3.0% |
| C=CCCCn1cc(C(=O)c2cccc3ccccc23)c2ccccc21 [JWH-022] |  |  |  |  |  |  | 100 ng/mL | 91.83% | >0.1 µg/mL | <3.0% |
| CCCn1c(C)c(C(=O)c2cccc3ccccc23)c2ccccc21 [JWH-015] |  |  |  |  |  |  | 100 ng/mL | 89.77% | >0.1 µg/mL | <3.0% |
| CCCCCn1cc(C(=O)c2cccc3ccccc23)c2ccc(O)cc21 [JWH-018 (6 hydroxyindole)] |  |  |  |  |  |  | 100 ng/mL | 93.92% | >0.1 µg/mL | <3.0% |
| O=C(c1cccc2ccccc12)c1cn(CCN2CCOCC2)c2ccccc12 [JWH-200] |  |  |  |  |  |  | 100 ng/mL | 86.38% | >0.1 µg/mL | <3.0% |
| CN1CCCCC1Cn1cc(C(=O)c2cc([N+](=O)[O-])ccc2I)c2ccccc21 (centres unmarked) [AM1241] |  |  |  |  |  |  | 100 ng/mL | 77.96% | >0.1 µg/mL | <3.0% |
| CC1(C)C(C(=O)c2cn(CCCCC(=O)O)c3ccccc23)C1(C)C [UR-144 N-pentanoic acid] |  | 100% | 16.8% | 100% | 0.003484 µg/mL |  |  |  |  |  |
